The text below walks through data of US7407969B2, “Respiratory syncytial virus replication inhibitors” (Janssen Pharmaceutica, N.V., priority 1999, dated 2008).

Where two headings read alike, the source gives them in different places.

Series [1] deals with Respiratory Syncytial Virus. Nature of the series: microbe, parasite or virus in culture. The format is cell-based. The note with it: for SI: selectivity index = CC50 divided by IC50. How it is done: (§1) The percent protection against cytopathology caused by viruses (antiviral activity or IC50) achieved by tested compounds and their cytotoxicity (CC50) were both calculated from dose-response curves.
(§2) Automated tetrazolium-based […] assays were used for determination of IC50 and CC50 of test compounds. Flat-bottom, 96-well plastic microtiter trays were filled with 180 μl of Eagle's Basal Medium, supplemented with 5% FCS (0% for FLU) and 20 mM Herpes buffer. Subsequently, stock solutions (7.8×final test concentration) of compounds were added in 45 μl volumes to a series of triplicate wells so as to allow simultaneous evaluation of their effects on virus- and mock-infected cells. Five five-fold dilutions were made directly in the microtiter trays using a robot system. Untreated virus controls, and HeLa cell controls were included in each test. Approximately 100 TCID50 Respiratory Syncytial Virus was added to two of the three rows in a volume of 50 μl. The same volume of medium was added to the third row to measure the cytotoxicity of the compounds at the same concentrations as those used to measure the antiviral activity. After two hours of incubation, a suspension (4×10^5 cells/ml) of HeLa cells was added to all wells in a volume of 50 μl. The cultures were incubated at 37° C. in a 5% CO2 atmosphere. Seven days after infection the cytotoxicity and the antiviral activity was examined spectrophotometrically. To each well of the microtiter tray, 25 μl of a solution of MIT (3-(4,5-dimethylthiazol-2-yl)-2,5-diphenyltetrazolium bromide) was added. The trays were further incubated at 37° C. for 2 hours, after which the medium was removed from each cup. Solubilization of the formazan crystals was achieved by adding 100 μl 2-propanol. Complete dissolution of the formazan crystals were obtained after the trays have been placed on a plate shaker for 10 min. Finally, the absorbances were read in an eight-channel computer-controlled photometer (Multiskan MCC, Flow Laboratories) at two wavelengths (540 and 690 nm). The absorbance measured at 690 nm was automatically subtracted from the absorbance at 540 nm, so as to eliminate the effects of non-specific absorption.

The nature of series [2]: Cytotoxicity (CC50) in mock-infected HeLa cells, tetrazolium (MTT) colorimetric assay. The class given is cell-based. The note with it: human. The procedure: as §1
as §2, with “Complete dissolution of the formazan crystals were obtained after the trays have been placed on a plate shaker for 10 min.” left out

Setting [3] is: human respiratory syncytial virus, HeLa, 168 h.

The compound `CCOC(c1cccc2cccnc12)n1c(NC2CCN(C(CN)C(C)C)CC2)nc2ccccc21` (racemic) showed a melting point of 202 °C.
Same read-out and setting: with `CC(C)C(N)CN1CCC(Nc2nc3ccccc3n2CC2CCc3ccccc3N2)CC1.Cl.Cl.Cl.Cl.O` (racemic) (hydrate or solvate) the figure was 230 °C.
`CC(C)C(N)CN1CCC(Nc2nc3ccccc3n2Cc2ccc3ccccc3n2)CC1` (racemic) [Compound 6, (±)-N-[1-(2-amino-3-methylbutyl)-4-piperidinyl]-1-(2-quinolinylmethyl)-1H-benzimidazol-2-amine]: the melting point turned out to be 135 °C. The IC50 in series [1] (human respiratory syncytial virus, 168 h, antiviral activity against Respiratory Syncytial Virus, HeLa cells, 7 days after infection, MTT, read-out: IC50) came out at 12.6 nM. Besides, in series [1], the SI amounted to 794. In series [2], this compound displayed a CC50 at 7 days of 10000 nM.
As to `NCCN1CCC(Nc2nc3ccccc3n2Cc2ccnc3ccccc23)CC1`, the melting point turned out to be 196 °C.
In series [1] (setting [3]), `CC(C)C(N)CN1CCC(Nc2nc3ccccc3n2C2CCCc3ccc(Br)nc32)CC1.Cl.Cl.Cl.O.O.O` (racemic) [Compound 56, (±)-N-[1-(2-amino-3-methylbutyl)-4-piperidinyl]-1-(2-bromo-5,6,7,8-tetrahydro-8-quinolinyl)-1H-benzimidazol-2-amine trihydrochloride trihydrate] yielded an IC50 of 1.6 nM. The compound further registered an SI in series [1] of 7943. Also, the CC50 at 7 days in series [2] (cytotoxicity in mock-infected HeLa cells, 7 days, MTT, read-out: CC50) was found to be 12700 nM.
Take “(±)-N-[1-(2-amino-3-methylbutyl)-4-piperidinyl]-3-(quinolinylmethyl)-3H-imidazo[4,5-b]pyridin-2-amine [Compound 42]”: the IC50 in series [1] (antiviral activity against Respiratory Syncytial Virus, HeLa cells, 7 days after infection, MTT, read-out: IC50) came to 0.4 nM. Further, in series [1], the SI is over 25119.
Turning to `CCOCCOC(c1cccc2cccnc12)n1c(NC2CCN(CC(N)C(C)C)CC2)nc2ccccc21` (racemic) [Compound 31, (±)-N-[1-(2-amino-3-methylbutyl)-4-piperidinyl]-1-[(2-ethoxyethoxy)-8-quinolinyl-methyl]-1H-benzimidazol-2-amine], in series [1] (setting [3]), the IC50 turned out to be 0.8 nM. In series [1], this compound gave an SI of 15849. It took 12700 nM to reach half-maximal cytotoxicity in series [2] (CC50 at 7 days).
